Measured values: patent publication US20090069373A1, “Quinoline Acids” (Wyeth, priority 2007, published 2009)

Tests used:
[1] = biological target: T1, human LXRβ (Homo sapiens, UniProt P55055); experiment: Ligand-binding test procedure for human LXRβ (3H T0901317 competition, flash plates); conditions: for Binding ratio a/b: IC50 (μM) LXRα binding/IC50 (μM) LXRβ binding; for IC50: biotinylated hLXRβ, tracer 3H T0901317
T1 construct: biotin (biotinylated; biotinylation tag not described); made in house; host or cells: E. coli
T1 sequence (P55055 1-460): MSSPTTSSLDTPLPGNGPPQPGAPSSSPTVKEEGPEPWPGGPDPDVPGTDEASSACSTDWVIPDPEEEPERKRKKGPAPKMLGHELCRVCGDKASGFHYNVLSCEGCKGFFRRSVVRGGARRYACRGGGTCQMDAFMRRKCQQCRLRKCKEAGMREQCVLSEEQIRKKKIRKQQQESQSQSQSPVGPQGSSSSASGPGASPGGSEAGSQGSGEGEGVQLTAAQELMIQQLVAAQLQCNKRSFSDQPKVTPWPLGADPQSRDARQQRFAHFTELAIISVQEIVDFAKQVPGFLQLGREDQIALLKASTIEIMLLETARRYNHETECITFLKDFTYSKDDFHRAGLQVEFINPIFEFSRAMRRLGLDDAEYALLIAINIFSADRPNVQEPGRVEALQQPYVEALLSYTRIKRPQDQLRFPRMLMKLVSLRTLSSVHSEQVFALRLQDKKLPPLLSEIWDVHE
Protocol: Ligand-Binding Test Procedure for Human LXRβ.
Receptor source: E. coli extract from cells expressing biotinylated hLXRβ. Extract was made in a similar buffer as above, but with 50 mM TRIS.
(§1) Washed streptavidin and coated flash plates with wash buffer.
(§2) Diluted receptor extract to give Bmax ˜4000 cpm and add to the wells.
(§3) Wrapped the plates in aluminum foil and stored them at +4° C. over night.
(§4) Made a dilution series in DMSO of the test ligands.
(§5) Made a 5 nM solution of the radioactive tracer in buffer.
(§6) Mixed 250 μl diluted tracer with 5 μl of the test ligand from each concentration of the dilution series.
(§7) Washed the receptor-coated flash plates.
(§8) Added 200 μl per well of the ligand/radiolabel mixture to the receptor-coated flash plates.
(§9) Wrapped the plates in aluminum foil and incubate at +4° C. over night.
(§10) Aspirated wells, and wash the flashed plates. Sealed the plate.
(§11) Measured the remaining radioactivity in the plate.

[2] = biological target: T2, human LXRα (Homo sapiens, UniProt Q13133); experiment: Ligand-binding test procedure for human LXRα (3H T0901317 competition, flash plates); conditions: biotinylated hLXRα, tracer 3H T0901317
T2 construct: biotin (biotinylated; biotinylation tag not described); made in house; host or cells: E. coli
T2 sequence (Q13133 1-447): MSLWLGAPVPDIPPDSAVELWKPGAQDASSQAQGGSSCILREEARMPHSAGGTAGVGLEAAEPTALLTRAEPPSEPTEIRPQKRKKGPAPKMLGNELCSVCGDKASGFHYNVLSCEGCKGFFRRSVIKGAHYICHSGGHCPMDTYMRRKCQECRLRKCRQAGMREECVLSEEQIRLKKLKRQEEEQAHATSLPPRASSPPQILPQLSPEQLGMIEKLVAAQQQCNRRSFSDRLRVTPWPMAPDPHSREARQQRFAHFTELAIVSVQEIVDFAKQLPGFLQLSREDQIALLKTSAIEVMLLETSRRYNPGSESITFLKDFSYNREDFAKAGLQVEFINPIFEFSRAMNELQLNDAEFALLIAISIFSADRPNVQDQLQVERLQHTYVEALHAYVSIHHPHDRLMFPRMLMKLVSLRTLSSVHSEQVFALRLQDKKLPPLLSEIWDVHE
Protocol: Ligand-Binding Test Procedure for Human LXRα.
Receptor source: E. coli extract from cells expressing biotinylated hLXRα. Extract was made in a similar buffer as above, but with 50 mM TRIS.
as §1, §2, §3, §4, §5, §6, §7, §8, §9, §10, §11

Compound | Binding ratio a/b [1] | IC50 [1] [nM] | IC50 [2] [nM]
COc1cccc(NCc2cccc(-c3c(Cc4ccccc4)cnc4c(C(F)(F)F)cccc34)c2)c1C(=O)O [Example 55, 2-({3-[3-benzyl-8-(trifluoromethyl)quinolin-4-yl]benzyl}amino)-6-methoxybenzoic acid] | 5 | 365 | 1810
O=C(O)c1cccc2c(NCc3cncc(-c4c(Cc5ccccc5)cnc5c(C(F)(F)F)cccc45)c3)cccc12 [Example 31, 5-[({5-[3-benzyl-8-(trifluoromethyl)quinolin-4-yl]pyridin-3-yl}methyl)amino]-1-naphthoic acid] | 8 | 210 | 1740
O=C(O)c1cc(NCc2cccc(-c3c(Cc4ccccc4)cnc4c(C(F)(F)F)cccc34)c2)ccc1Cl [Example 82, 5-({3-[3-benzyl-8-(trifluoromethyl)quinolin-4-yl]benzyl}amino)-2-chlorobenzoic acid] | 3 | 523 | 1450
O=C(O)c1ccccc1NCc1cccc(-c2c(Cc3ccccc3)cnc3c(C(F)(F)F)cccc23)c1 [Example 97, 2-({3-[3-benzyl-8-(trifluoromethyl)quinolin-4-yl]benzyl}amino)benzoic acid] | 2 | 237 | 493
CC(C)C[C@H](NC(=O)c1cccc(COc2cccc(-c3c(Cc4ccccc4)cnc4c(C(F)(F)F)cccc34)c2)c1)C(=O)O [Example 96, N-[3-({3-[3-benzyl-8-(trifluoromethyl)quinolin-4-yl]phenoxy}methyl)benzoyl]leucine] | 2 | 546 | 1160
Cc1cc(C(=O)O)ccc1C#Cc1cccc(-c2c(Cc3ccccc3)cnc3c(C(F)(F)F)cccc23)c1 [Example 128, 4-({3-[3-Benzyl-8-(trifluoromethyl)quinolin-4-yl]phenyl}ethynyl)-3-methylbenzoic acid] | 7 | 19 | 137
O=C(O)c1ccc(F)c(OCc2cccc(-c3c(Cc4ccccc4)cnc4c(C(F)(F)F)cccc34)c2)c1 [Example 92, 3-({3-[3-benzyl-8-(trifluoromethyl)quinolin-4-yl]benzyl}oxy)-4-fluorobenzoic acid] | 2 | 570 | 1280
O=C(O)c1cc2cccc(NCc3cccc(-c4c(Cc5ccccc5)cnc5c(C(F)(F)F)cccc45)c3)c2[nH]1 [Example 77, 7-({3-[3-benzyl-8-(trifluoromethyl)quinolin-4-yl]benzyl}amino)-1H-indole-2-carboxylic acid] | 3 | 408 | 1250
O=C(O)CC1CCCc2c(OCc3cccc(-c4c(Cc5ccccc5)cnc5c(C(F)(F)F)cccc45)c3)cccc21 (stereo not drawn) [Example 37, [5-({3-[3-benzyl-8-(trifluoromethyl)quinolin-4-yl]benzyl}oxy)-1,2,3,4-tetrahydronaphthalen-1-yl]acetic acid] | 7 | 19 | 131
O=C(O)c1c[nH]c2ccc(NCc3cccc(-c4c(Cc5ccccc5)cnc5c(C(F)(F)F)cccc45)c3)cc12 [Example 99, 5-({3-[3-benzyl-8-(trifluoromethyl)quinolin-4-yl]benzyl}amino)-1H-indole-3-carboxylic acid] | 2 | 620 | 1240
O=C(O)[C@@H]1CCCN1C(=O)c1ccc(COc2cccc(-c3c(Cc4ccccc4)cnc4c(C(F)(F)F)cccc34)c2)cc1 [Example 54, 1-[4-({3-[3-benzyl-8-(trifluoromethyl)quinolin-4-yl]phenoxy}methyl)benzoyl]proline] | 5 | 62 | 321
O=C(O)c1ccc(NCc2cccc(-c3c(Cc4ccccc4)cnc4c(C(F)(F)F)cccc34)c2)c(OC(F)(F)F)c1 [Example 110, 4-({3-[3-benzyl-8-(trifluoromethyl)quinolin-4-yl]benzyl}amino)-3-(trifluoromethoxy)benzoic acid] | 1 | 1580 | 2040
O=C(O)c1cccc(Oc2cccc(-c3c(Cc4ccccc4)cnc4c(Cl)cccc34)c2)c1 [Example 125, 3-[3-(3-Benzyl-8-chloroquinolin-4-yl)phenoxy]benzoic acid] | 1 | 228 | 267
CC(C)C[C@H](NC(=O)c1ccc(COc2cccc(-c3c(Cc4ccccc4)cnc4c(C(F)(F)F)cccc34)c2)cc1)C(=O)O [Example 81, N-[4-({3-[3-benzyl-8-(trifluoromethyl)quinolin-4-yl]phenoxy}methyl)benzoyl]leucine] | 3 | 236 | 654
O=C(O)c1cccc(-c2cccc(-c3c(Cc4ccccc4)cnc4c(C(F)(F)F)cccc34)c2)c1 [Example 130, 3′-[3-Benzyl-8-(trifluoromethyl)quinolin-4-yl]biphenyl-3-carboxylic acid] |  | 2380 | 1320

Continued, values first:

Binding ratio a/b [1] | IC50 [1] [nM] | IC50 [2] [nM] | Compound
 | 2520 | > 1000 | Cc1cc(NCc2cncc(-c3c(C)cnc4c(C(F)(F)F)cccc34)c2)c(C)cc1CC(=O)O [Example 117, {2,5-dimethyl-4-[({5-[3-methyl-8-(trifluoromethyl)quinolin-4-yl]pyridin-3-yl}methyl)amino]phenyl}acetic acid]
4 | 558 | 2060 | Cc1ccc(NCc2cccc(-c3c(Cc4ccccc4)cnc4c(C(F)(F)F)cccc34)c2)c(C(=O)O)c1 [Example 71, 2-({3-[3-benzyl-8-(trifluoromethyl)quinolin-4-yl]benzyl}amino)-5-methylbenzoic acid]
6 | 2 | 13 | Cc1cc(NCc2ccc(-c3c(Cc4ccccc4)cnc4c(C(F)(F)F)cccc34)s2)c(C)cc1CC(=O)O [Example 47, {4-[({5-[3-benzyl-8-(trifluoromethyl)quinolin-4-yl]-2-thienyl}methyl)amino]-2,5-dimethylphenyl}acetic acid]
1 | 709 | 874 | O=C(O)c1c(Cl)cccc1NCc1cccc(-c2c(Cc3ccccc3)cnc3c(C(F)(F)F)cccc23)c1 [Example 111, 2-({3-[3-benzyl-8-(trifluoromethyl)quinolin-4-yl]benzyl}amino)-6-chlorobenzoic acid]
2 | 906 | 2000 | Cc1cccc(NCc2cccc(-c3c(Cc4ccccc4)cnc4c(C(F)(F)F)cccc34)c2)c1C(=O)O [Example 93, 2-({3-[3-benzyl-8-(trifluoromethyl)quinolin-4-yl]benzyl}amino)-6-methylbenzoic acid]
24 | 9 | 223 | Cc1cc(NCc2cccc(-c3c(C)cnc4c(C(F)(F)F)cccc34)c2)c(C)cc1CC(=O)O [Example 7, [2,5-Dimethyl-4-({3-[3-methyl-8-(trifluoromethyl)quinolin-4-yl]-benzyl}amino)phenyl]acetic acid]
 | 7220 | > 1000 | Cc1cnc2c(C(F)(F)F)cccc2c1-c1cncc(CNc2cccc3c(CC(=O)O)cccc23)c1 [Example 119, {5-[({5-[3-methyl-8-(trifluoromethyl)quinolin-4-yl]pyridin-3-yl}methyl)amino]-1-naphthyl}acetic acid]
31 | 288 | 9030 | Cc1cc(NCc2cccc(-c3ccnc4c(C(F)(F)F)cccc34)c2)c(C)cc1CC(=O)O [Example 4, [2,5-Dimethyl-4-({3-[8-(trifluoromethyl)quinolin-4-yl]benzyl}amino)phenyl]acetic acid]
2 | 1370 | 3010 | Cc1ccc(C(=O)O)cc1NCc1cccc(-c2c(Cc3ccccc3)cnc3c(C(F)(F)F)cccc23)c1 [Example 94, 3-({3-[3-benzyl-8-(trifluoromethyl)quinolin-4-yl]benzyl}amino)-4-methylbenzoic acid]
